Experimental data: patent US7491703B2, “Tetrapeptide regulating blood glucose level in diabetes mellitus” (“Access Bioscience” CJSC, priority 2003, dated 2009)
Residues, ends and D or L forms follow the SMILES beside them.

Experiments:
[1] = tested on: rats with alloxan diabetes; assay: Glucose tolerance test (sugar curve) in alloxan diabetes rats (Example 6); format: in vivo, rat; conditions: for glucose concentration in blood, glucose tolerance test: in mg/dL
Procedure: The study was conducted on 13 male rats, enrolled in the previous tests (treatment variants—44 days after completion of tetrapeptide Lys-Glu-Asp-Trp-NH2 [SEQ ID NO:1] administration). 7 healthy rats with the same body weight constituted a separate group. All the animals were administered intravenously with 1 ml of 2% glucose solution, after that glucose concentration in their blood was estimated.

[2] = tested on: rats with alloxan diabetes; assay: Tetrapeptide in different doses on the course of alloxan diabetes in rats (Example 4); format: in vivo, rat; conditions: for increase in the blood glucose level as compared to the controls: dose of 1 μg; for decrease of glucose level: dose of 10 μg
Procedure: The study was performed on 23 white mongrel male rats weighing on average […]. All the animals were subject to single intravenous administration of 1 ml of alloxan (“Spofa”) solution in dose of […].
Then the animals were divided at random into 3 groups. Control animals were intraperitoneally administered with 0.3 ml of 0.9% NaCl solution once a day. Rats of the second and third group were administered with tetrapeptide Lys-Glu-Asp-Trp-NH2 [SEQ ID NO:1] in dose of 1 μg (in 0.1 ml of 0.9% NaCl solution) and 10 μg (in 1.0 ml of 0.9% NaCl solution) per rat during 7 days.

[3] = 30 min after glucose administration
[4] = 60 min after glucose administration
[5] = 120 min after glucose administration

Compound: NCCCC[C@H](N)C(=O)N[C@@H](CCC(=O)O)C(=O)N[C@@H](CC(=O)O)C(=O)N[C@@H](Cc1c[nH]c2ccccc12)C(N)=O [Lys-Glu-Asp-Trp-NH2, lysyl-glutamyl-aspartyl-tryptophane amid] (H-KEDW-NH2)
- glucose concentration compared to the initial level (100%) ([1]; 5 min after glucose administration): 142.9%
- glucose concentration in blood, glucose tolerance test ([1]; 5 min after glucose administration (1 ml of 2% i.v.)): 301.2 ± 10.5
- glucose concentration compared to the initial level (100%) [1, 3]: 97.3%
- glucose concentration in blood, glucose tolerance test [1, 3]: 205.1 ± 11.8
- glucose concentration compared to the initial level (100%) [1, 4]: 95.6%
- glucose concentration in blood, glucose tolerance test [1, 4]: 201.5 ± 13.2
- glucose concentration compared to the initial level (100%) [1, 5]: 77.9%
- glucose concentration in blood, glucose tolerance test [1, 5]: 164.2 ± 12.8
- glucose concentration in blood, glucose tolerance test ([1]; initial level, 44 days after course completion): 210.8 ± 9.3
- Glucose Concentration in blood ([2]; 1 mkg group, 7 days after alloxan administration): 245.6 ± 12.3 mg %
- Glucose Concentration in blood ([2]; 1 mkg group, 14 days after alloxan administration): 261.7 ± 12.3 mg %
- Glucose Concentration in blood ([2]; 1 mkg group, initial level): 80.6 ± 2.8 mg %
- Glucose Concentration in blood ([2]; 1 mkg per rat, 7 days, 1 day after tetrapeptide administration): 228.3 ± 10.7 mg %
- Glucose Concentration in blood ([2]; 1 mkg per rat, 4 days after tetrapeptide administration): 244.4 ± 12.2 mg %
- Glucose Concentration in blood ([2]; 1 mkg per rat, 7 days after tetrapeptide administration): 269.4 ± 8.6 mg %
- Glucose Concentration in blood ([2]; 1 mkg per rat, 14 days after tetrapeptide administration): 268.8 ± 12.4 mg %
- Glucose Concentration in blood ([2]; 1 mkg per rat, 21 days after tetrapeptide administration): 272.5 ± 9.9 mg %
- Glucose Concentration in blood ([2]; 10 mkg group, 7 days after alloxan administration): 247.2 ± 14.0 mg %
- Glucose Concentration in blood ([2]; 10 mkg group, 14 days after alloxan administration): 252.2 ± 7.9 mg %
- Glucose Concentration in blood ([2]; 10 mkg group, initial level): 83.9 ± 3.4 mg %
- Glucose Concentration in blood ([2]; 10 mkg per rat, 7 days, 1 day after tetrapeptide administration): 193.3 ± 6.7 mg %
- Glucose Concentration in blood ([2]; 10 mkg per rat, 4 days after tetrapeptide administration): 212.2 ± 7.3 mg %
- Glucose Concentration in blood ([2]; 10 mkg per rat, 7 days after tetrapeptide administration): 205.6 ± 8.4 mg %
- Glucose Concentration in blood ([2]; 10 mkg per rat, 14 days after tetrapeptide administration): 240.0 ± 7.9 mg %
- Glucose Concentration in blood ([2]; 10 mkg per rat, 21 days after tetrapeptide administration): 248.3 ± 13.5 mg %
- increase in the blood glucose level as compared to the controls ([2]; 1st day after completion of the course): 17.3%
- increase in the blood glucose level as compared to the controls ([2]; 4th day after completion of the course): 12.3%
- decrease of glucose level ([2]; day 1): 30%
- decrease of glucose level ([2]; day 4): 23.8%
- decrease of glucose level ([2]; day 7): 26%
- decrease of glucose level ([2]; day 17): 12.7%
